What was measured:
[1] = tested on: poly(U)•poly(A)*poly(U) (RNA, polymer) U/A/U; assay: UV melting at 260 nm; conditions: 35 mM Na+ (25 mM NaCl, 10 mM sodium cacodylate), 0.1 mM Na2EDTA, pH 7.0, D/P 0.6, triplex 30 µM (compound 18 µM), third-strand transition, per base
[2] = tested on: poly(U)•poly(A)*poly(U) (RNA, polymer) U/A/U; assay: fluorescence titration, Scatchard, McGhee-von Hippel non-cooperative; conditions: 35 mM Na+ (25 mM NaCl, 10 mM sodium cacodylate), 0.1 mM Na2EDTA, pH 7.0, 25 °C, intrinsic constant per isolated site, per base
[3] = tested on: poly(U)•poly(A)*poly(U) (RNA, polymer) U/A/U; assay: ITC, single set of sites; conditions: 35 mM Na+ (25 mM NaCl, 10 mM sodium cacodylate), 0.1 mM Na2EDTA, pH 7.0, 25 °C, triplex 25 µM, per base
[4] = tested on: poly(U)•poly(A)*poly(U) (RNA, polymer) U/A/U; assay: absorbance titration, Scatchard, McGhee-von Hippel non-cooperative; conditions: 35 mM Na+ (25 mM NaCl, 10 mM sodium cacodylate), 0.1 mM Na2EDTA, pH 7.0, 25 °C, intrinsic constant per isolated site, per base

ΔTm' (3→2) [1]	Ki [2]	Ka [3]	Ki [4]	Compound
20.5 °C	47.0±0.56 × 10^5 M^-1	23±0.10 × 10^5 M^-1	39.87±0.41 × 10^5 M^-1	COc1ccc2cc3[n+](cc2c1OCCCCCCN)CCc1cc2c(cc1-3)OCO2
18.1 °C	9.5±0.10 × 10^5 M^-1	9.73±0.09 × 10^5 M^-1	8.65±0.34 × 10^5 M^-1	COc1ccc2cc3[n+](cc2c1OCCCN)CCc1cc2c(cc1-3)OCO2
17.5 °C	3.9±0.05 × 10^5 M^-1	1.5±0.04 × 10^5 M^-1	2.88±0.02 × 10^5 M^-1	COc1ccc2cc3[n+](cc2c1OC)CCc1cc2c(cc1-3)OCO2
